Laboratory results reported in patent publication US20230226040A1, “COMBINATION THERAPY COMPRISING AN FGFR INHIBITOR AND A KRAS INHIBITOR” (Incyte Corporation, priority 2021, published 2023).
Values joined by “and” are separate entries in the source; they are usually repeats but may differ in a detail not shown here. Equal entries are not always repeated.

How the values were obtained:
pFRS2a [1] = assay: Western blot of pFRS2a in LU99 cell lysate (90 hours treatment); type: cell-based; conditions: LU99 cells; 50 nM KRAS G12C inhibitor alone
Text: FGFR1 and downstream activation marker pFRS2a protein levels were examined in indicated cell lines, as well as markers for epithelial-like cells (E-cadherin) and mesenchymal-like cells (Vimentin).

LU99 cells = assay: siRNA FGFR knockdown plus KRAS G12C inhibitor, Cell Titer Glo proliferation; type: cell-based; conditions: 120 h
Method: Knockdown efficiency was assessed by Western blot and its effect was measured by cell proliferation inhibition.
The lyophilized siRNA pools or individuals (Dharmacon ON-TARGET plus siRNA from Horizon Discovery) were reconstituted by combining 1× siRNA buffer (200 μL) with lyophilized siRNA (20 nmol); or combining 1× siRNA buffer (100 μL) with lyophilized siRNA (10 nmol). Dharmafect Reagent 1 was prepared at a 1:200 dilution in 1X siRNA buffer. One tube of diluted reagent was prepared for each siRNA dilution. To each tube, the appropriate siRNA was added to Dharmafect Reagent 1 at a 1:400 dilution. The prepared siRNA reagent ([…]) was added to the appropriate number of wells on a 96-well clear bottom Greiner plate and incubated at room temperature for 30 min.
For plating in 96-well pates, 2000 LU99 cells per well in 100 μL of medium were prepared. The prepared cells (100 μL per well) were added to each well of the 96-well plate and incubated at 48 h.
Compound plates were prepared with a compound starting concentration of 5 mM in a 3-fold dilution. Following 48 h transfection incubation, the appropriate compounds were added to the 96-well plate at a final starting concentration of 5 μM in 3-fold dilution (11 point dose response curve). After addition of the compounds, the 96-well plates were incubated at 37° C. for 120 h. After this time, Cell Titer Glo reagent is reconstituted and 100 μL of reagent was added per well. The plates were tapped gently and luminescence was read on a Pherastar microplate reader.

pFRS2a [2] = assay: Western blot of pFRS2a in LU99 cells (24 hours treatment, with or without rhFGF); type: cell-based; conditions: 100 nM KRAS G12C inhibitor, with or without rhFGF stimulation
Method: LU99 cells were treated with 100 nM of Compound 2, pemigatinib, Compound 1, or indication combination for 24 hours, and with or without lng/ml recombinant human FGF (rhFGF) before harvesting the lysate.
Cells were seeded in Corning 6-well tissue culture treated plates in RPMI medium with 10% FBS at 6×10^5 cells/well. After 48 hours, cells were or treated with indicated compounds for 24 hours at 37° C., 5% CO2. rhFGF—basic (R&D systems 233-FB) was added at 1 nG/ml for 15 minutes at the end of the experiment as indicated. The cells were washed with PBS and lysed with 1x lysis buffer (Cell Signaling #9803) with protease and phosphatase inhibitors. Twenty-five μg of total protein lysates was subjected to SDS-PAGE and immunoblot analysis using the following Cell Signaling antibodies: pERK (#4370) phospho-FRS2a (#3861) and beta-Actin (#12620).
Cells were seeded in Corning 6-well tissue culture treated plates in RPMI medium with 10% FBS at 6x10^5 cells/well. After 48 hours, cells were or treated with indicated compounds for 24 hours at 37° C., 5% CO2. rhFGF—basic (R&D systems 233-FB) was added at 1 nG/ml for 15 minutes at the end of the experiment as indicated. The cells were washed with PBS and lysed with 1× lysis buffer (Cell Signaling #9803) with protease and phosphatase inhibitors. […]

SW-837 = assay: 5-day Cell Titer Glo combination matrix, Bliss score; type: cell-based; conditions: SW-837 (CRC, Epithelial); KRAS inhibitor in combination with pemigatinib; 5 days
Method: (§2) Cells were seeded in RPMI medium with 10% HI FBS at a density of 500 cells/well in Greiner, white, clear bottom, 384-well tissue culture treated plates containing 10×10 combination matrices of compound. Plates were incubated at 37° C., 5% CO2 for 5 days. On day 5, Cell Titer Glo reagent was added to the plates and ATP luminescence was detected using a Pherastar FSX reader. The synergy score for the combination effect was calculated using a Bliss score model where the Bliss score=Yab-(Ya+Yb−(YaYb))×100, where Ya and Yb are the monotherapies. Bliss scores >20 are strongly synergistic and a higher Bliss scores indicates a higher level of synergism.
(§3) Cells were seeded in RPMI medium with 10% HI FBS at a density of 500 cells/well in Greiner, white, clear bottom, 384-well tissue culture treated plates containing 10×10 combination matrices of compound. Plates were incubated at 37° C., 5% CO2 for 5 days. On day 5, Cell Titer Glo reagent was added to the plates and ATP luminescence was detected using a Pherastar FSX reader. The synergy score for the combination effect was calculated using a Bliss score model where the Bliss score=Yab−(Ya+Yb−(YaYb))×100, where Ya and Yb are the monotherapies. Bliss scores >20 are strongly synergistic and a higher Bliss scores indicates a higher level of synergism.

HCC-44 = assay: as above; type: cell-based; conditions: HCC-44 (Lung, Mesenchymal); KRAS inhibitor in combination with pemigatinib; 5 days
Method: as §2, §3

[3] = test system: MiaPaca2 KRAS G12C resistant clone 11; assay: 5-day Cell Titer Glo viability and Bliss score; type: cell-based; conditions: CLONE 11, 5-day CTG
Method: (§1) For G12C resistant clone generation, MiaPaca2 parent cells were cultured with increasing concentrations of AMG510 (up to 1μM) over time. The viable cells were re-fed fresh media containing AMG510 weekly. Once the AMG510 resistant cells were growing at normal rates in the presence of 1μM AMG510, they were cloned by limiting dilution. Eight clones were selected for continued passage and further experiments.

[4] = test system: MiaPaca2 KRAS G12C resistant clone 7; assay: 5-day Cell Titer Glo viability and Bliss score; type: cell-based; conditions: 5-day CTG
Method: as §1

[5] = test system: MiaPaca2 KRAS G12C resistant clone 28; assay: 5-day Cell Titer Glo viability and Bliss score; type: cell-based; conditions: 5-day CTG
Method: as §1

[6] = test system: MiaPaca2 KRAS G12C resistant clone 23; assay: 5-day Cell Titer Glo viability and Bliss score; type: cell-based; conditions: 5-day CTG
Method: as §1

Calu-1 = assay: 5-day Cell Titer Glo combination matrix, Bliss score; type: cell-based; conditions: Calu-1 (Lung, Mesenchymal); KRAS inhibitor in combination with pemigatinib; 5 days
Method: as §2

[7] = test system: LU99 lung cancer xenograft; assay: LU99 xenograft model, tumor growth inhibition; type: in vivo; conditions: NCr nude mice; AMG510 20 mg/kg, pemigatinib 0.3 mg/kg, alone or combined; oral QD, 30 days; last day of treatment
Method: The in vivo effect of combining the FGFR1 inhibitor pemigatinib plus the KRAS G12C inhibitor AMG510 was assessed in the LU99 lung cancer model (JCRB0080, JCRB) xenograft model (FIG. 3) in 6 to 8 week old female NCr nude mice (Taconic). Pemigatinib and AMG510 were suspended in 5% N,N-dimethyl acetamide (DMAC)+50 mM Citrate buffer (pH 3.0) in 0.5% methyl cellulose for oral administration. Briefly, mice were inoculated in the left flank with 1×10^7 LU99 cells re-suspended in a PBS and matrigel (Corning Life Sciences, Tewksbury, Mass) solution at 1:1. On Day 7, mice were randomized into 4 groups of 10 mice at approximate mean volume (˜212 mm^3). […] Tumor growth inhibition was calculated using the formula (1−(VT/VC))×100, where VT is the tumor volume of the treatment group on the last day of treatment, and Vc is the tumor volume of the control group on the last day of treatment. […] Statistics were determined using One-Way ANOVA.
Briefly, mice were inoculated in the left flank with 1×10^7LU99 cells re-suspended in a PBS and matrigel (Corning Life Sciences, Tewksbury, Mass) solution at 1:1. […] TGI was calculated using the formula (1−(VT/VC))×100, where VT is the tumor volume of the treatment group on the last day of treatment, and VC is the tumor volume of the control group on the last day of treatment. […]

SW-1573 = assay: 5-day Cell Titer Glo combination matrix, Bliss score; type: cell-based; conditions: SW-1573 (Lung, Mesenchymal); KRAS inhibitor in combination with pemigatinib; 5 days
Method: as §2
(§4) Cells were seeded in RPMI medium with 10% HI FBS at a density of 500 cells/well in Greiner, white, clear bottom, 384-well tissue culture treated plates containing 10×10 combination matrices of compound. Plates were incubated at 37° C., 5% CO2 for 5 days. On day 5, Cell Titer Glo reagent was added to the plates and ATP luminescence was detected using a Pherastar FSX reader. Synergy score for the combination effect is calculated using a Bliss score model where the Bliss score=Yab−(Ya+Yb−(YaYb))×100, where Ya and Yb are the monotherapies. Bliss scores >20 are strongly synergistic and a higher Bliss scores indicates a higher level of synergism.
as §3

H1792 = assay: as above; type: cell-based; conditions: H1792 (Lung, Mesenchymal); KRAS inhibitor in combination with pemigatinib; 5 days
Method: as §2, §4, §3

H358 = assay: as above; type: cell-based; conditions: H358 (Lung, Epithelial); KRAS inhibitor in combination with pemigatinib; 5 days
Method: as §2, §4, §3

[8] = in the absence of FGFR1, FGFR2 or FGFR3

Q: How did the “protein level of pFRS2a” value (pFRS2a [1]) turn out when COC/C=C/C(=O)N1CC[C@H](n2nnc3c(N4CC(C)(N(C)C)C4)nc4c(F)c(-c5ccc(F)c6cccnc56)c(C(F)(F)F)cc4c32)C[C@H]1CC#N [Compound 2, 2-((2S,4S)-4-(4-(3-(dimethylamino)-3-methylazetidin-1-yl)-6-fluoro-7-(5-fluoroquinolin-8-yl)-8-(trifluoromethyl)-1H-[1,2,3]triazolo[4,5-c]quinolin-1-yl)-1-((E)-4-methoxybut-2-enoyl)piperidin-2-yl)acetonitrile] was run?
A: elevated the protein level of pFRS2a

Q: What about the “inhibition of LU99 cell proliferation after siRNA knockdown” value (from here on “inhibition of LU99 cell proliferation”) (LU99 cells; all FGFR isoforms knocked down, in particular in the absence of FGFR1 and FGFR2) of the same compound?
A: higher inhibition in proliferation

Q: What about the “inhibition of LU99 cell proliferation” value (LU99 cells; [8]) of the same compound?
A: higher inhibition in proliferation

Q: And the pFRS2a signaling (pFRS2a [2])?
A: elevated

Q: C=CC(=O)N1CCN(c2nc(=O)n(-c3c(C)ccnc3C(C)C)c3nc(-c4c(O)cccc4F)c(F)cc23)[C@@H](C)C1 [AMG-510] was tested. Which “protein level of pFRS2a” value (pFRS2a [1]) did it give?
A: elevated the protein level of pFRS2a

Q: And the “inhibition of LU99 cell proliferation” value (LU99 cells; [8])?
A: higher inhibition in proliferation

Q: And the “inhibition of LU99 cell proliferation” value (LU99 cells; in the absence of FGFR1 or FGFR4)?
A: higher inhibition in proliferation

Q: What about the “Avg. Bliss Score” value (SW-837) of the same compound?
A: −7.7

Q: And the “Avg. Bliss Score” value (HCC-44)?
A: 4.4

Q: What about the “% viability, G12C i 111 nM” value ([3]; G12C i alone (Compound 1 arm)) of the same compound?
A: 63%

Q: And the “% viability, G12C i 111 nM” value ([3]; G12C i alone (Pemi arm))?
A: 67%

Q: And the “% viability, G12C i 111 nM” value ([4]; Average, G12C i alone (Compound 1 arm))?
A: 77.6%

Q: What about the “% viability, G12C i 111 nM” value ([4]; Average, G12C i alone (Pemi arm)) of the same compound?
A: 77.8%

Q: What about the “% viability, G12C i 111 nM” value ([4]; G12C i alone (Compound 1 arm), single experiments) of the same compound?
A: 67.1% and 88%

Q: And the “% viability, G12C i 111 nM” value ([4]; G12C i alone (Pemi arm), single experiments)?
A: 69.6% and 90% and 73.7%

Q: And the “% viability, G12C i 111 nM” value ([5]; G12C i alone (Compound 1 arm))?
A: 77.5%

Q: What about the “% viability, G12C i 111 nM” value ([5]; G12C i alone (Pemi arm)) of the same compound?
A: 69.6%

Q: What about the “% viability, G12C i 111 nM” value ([6]; G12C i alone (Compound 1 arm)) of the same compound?
A: 83.9%

Q: What about the “% viability, G12C i 111 nM” value ([6]; G12C i alone (Pemi arm)) of the same compound?
A: 90.9%

Q: And the “Avg. Bliss Score” value (Calu-1)?
A: 11.2

Q: What about the “TGI (tumor growth inhibition)” value [7] of the same compound?
A: 66%

Q: What about the “Avg. Bliss Score” value (SW-1573) of the same compound?
A: 25.9

Q: And the “Avg. Bliss Score” value (H1792)?
A: 26.7

Q: And the “Avg. Bliss Score” value (H358)?
A: 3.7
